Experimental data reported in publication PMC11858854, “In Vitro and In Vivo Assessment of Pharmacokinetic Profile of Peramivir in the Context of Inhalation Therapy” (Pharmaceuticals, 2025).

Key:
NCI-H441 cell model = assay: Bidirectional transport, NCI-H441 air-liquid culture model; format: in vitro ADME, human; details: NCI-H441, 2 μM
Protocol: NCI-H441 cells were cultured in RPMI-1640 medium (Gibco, Thermo, CA, USA) supplemented with 10% FBS and PS (100 U/mL) at 37 °C in a humidified 5% CO2 incubator, and the medium was changed every other day. […] Then, 850 μL of complete medium (containing 200 nM dexamethasone) was added to the basolateral chamber. […] Subsequently, an air-interfaced culture (AIC) was initiated by supplying 650 μL of culture medium to the basolateral chamber only. The culture medium was replaced every other day.
We removed the liquid from the apical and basolateral of the Transwell, rinsed the cells three times with a buffer containing HBSS, 10 mM Hepes, and 0.1% BSA (Buffer A), and then added Buffer A (100 µL for the apical side and 600 µL for the basolateral side) for pre-incubation for 30 min at 37 °C. For the transport studies in the apical to basolateral (A-B) direction, 100 μL of pre-warmed test solution (Buffer A containing 2 µM positive control drugs or peramivir) was added to the apical side, while 600 μL of pre-warmed assay buffer, a buffer containing HBSS, 10 mM Hepes, and 1% BSA (Buffer B), was added to the basolateral compartment.

human OCT1 = target: T1, human OCT1 (Homo sapiens, UniProt O15245); assay: Uptake study, HEK293 cells overexpressing OCT1; format: in vitro ADME
T1 construct: host or cells: HEK293 (HEK293-OCT1); control HEK293-MOCK
T1 sequence (O15245 1-554): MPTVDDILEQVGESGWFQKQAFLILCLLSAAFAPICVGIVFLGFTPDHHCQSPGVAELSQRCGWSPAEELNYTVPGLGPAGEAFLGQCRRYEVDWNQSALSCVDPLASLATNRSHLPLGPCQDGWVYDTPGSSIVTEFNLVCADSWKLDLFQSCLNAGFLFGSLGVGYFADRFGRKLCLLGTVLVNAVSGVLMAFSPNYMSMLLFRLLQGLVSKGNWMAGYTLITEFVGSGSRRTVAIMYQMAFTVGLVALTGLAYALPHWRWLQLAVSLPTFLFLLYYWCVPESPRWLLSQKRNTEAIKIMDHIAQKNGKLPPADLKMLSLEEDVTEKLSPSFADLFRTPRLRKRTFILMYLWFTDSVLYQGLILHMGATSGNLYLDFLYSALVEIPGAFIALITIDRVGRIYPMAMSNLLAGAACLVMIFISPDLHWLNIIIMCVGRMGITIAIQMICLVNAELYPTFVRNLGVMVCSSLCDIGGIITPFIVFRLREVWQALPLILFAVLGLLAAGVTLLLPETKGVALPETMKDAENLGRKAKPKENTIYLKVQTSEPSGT
Protocol: (§1) All cells (HEK293-MOCK, HEK293-OCT1, HEK293-OCT2, MDCK-MOCK, MDCK-OCTN1, and MDCK-OCTN2) were cultured in DMEM medium supplemented with 10% FBS and PS (100 U/mL), at 37 °C in a humidified 5% CO2 incubator. Cells were seeded on 24-well plates at a density of 1 × 10^4 cells/well. For the uptake assay, the DMEM media were removed, and the cells were washed with pre-warmed Hank’s buffer three times (1 mL/well). Subsequent addition of inhibitor-free/inhibitor-containing buffer was pre-incubated for 30 min at 37 °C prior to the initiation of the uptake experiment. After the pre-incubating buffer was removed, 200 μL of pre-warmed test drugs solution (Hank’s buffer containing 10 µM and 50 µM peramivir) or a mixture of test drugs and inhibitor was added into each well, and the plates were incubated at 37 °C for 5 min. At the end of incubation, cells were washed and lysed as described above. The cell lysate was collected and stored at −40 °C for LC-MS/MS analysis and protein measurement. The negative control (MOCK cells) and positive control were included simultaneously.

human OCTN2 = target: T2, human OCTN2 (Homo sapiens, UniProt O76082); assay: Uptake study, MDCK cells overexpressing OCTN2; format: in vitro ADME
T2 construct: Huidi Jiang, Zhejiang University; host or cells: MDCK (MDCK-OCTN2); control MDCK-MOCK
T2 sequence (O76082 1-557): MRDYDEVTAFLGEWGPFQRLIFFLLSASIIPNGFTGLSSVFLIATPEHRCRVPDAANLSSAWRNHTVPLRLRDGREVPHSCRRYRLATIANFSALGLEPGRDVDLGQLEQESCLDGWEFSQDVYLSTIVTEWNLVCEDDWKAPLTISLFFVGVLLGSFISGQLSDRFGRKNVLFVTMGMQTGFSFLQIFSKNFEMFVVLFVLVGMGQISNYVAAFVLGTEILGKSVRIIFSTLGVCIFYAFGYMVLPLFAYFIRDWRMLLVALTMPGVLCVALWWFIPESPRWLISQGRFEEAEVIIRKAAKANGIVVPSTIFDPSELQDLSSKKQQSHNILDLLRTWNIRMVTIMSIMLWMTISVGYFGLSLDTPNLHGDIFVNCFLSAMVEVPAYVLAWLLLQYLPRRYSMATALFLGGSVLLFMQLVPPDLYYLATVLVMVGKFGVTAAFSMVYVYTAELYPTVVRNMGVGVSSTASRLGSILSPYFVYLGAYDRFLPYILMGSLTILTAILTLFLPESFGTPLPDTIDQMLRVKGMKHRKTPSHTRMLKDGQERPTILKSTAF
Protocol: as §1

Caco-2 cell model = test system: Caco-2 cell model; set-up: method as in PMID 28000173; details: Caco-2, 10 μM; cited from earlier work

CCC(CC)[C@H](NC(C)=O)[C@@H]1[C@H](O)[C@@H](C(=O)O)C[C@H]1N=C(N)N [Peramivir]
ER (NCI-H441 cell model): 1.11 | Papp A-B (NCI-H441 cell model; Mean ± SD, n = 3): 1.15 ± 0.16 ×10−6 cm/s | Papp B-A (NCI-H441 cell model; Mean ± SD, n = 3): 1.28 ± 0.36 ×10−6 cm/s | OCT1 substrate status (human OCT1; HEK293-OCT1): does not act as a substrate | transporter-mediated uptake ratio (UR) (human OCT1; HEK293-OCT1, 50 μM): < 1 | inhibition ratio (IR) (human OCT1; HEK293-OCT1, 50 μM, inhibitor verapamil (200 μM)): exceeding 98.51% | OCTN2 substrate status (human OCTN2; MDCK-OCTN2): confirming peramivir as a substrate for the OCTN2 transporter | transporter-mediated uptake ratio (UR value) (human OCTN2; MDCK-OCTN2, 50 μM): 41.62 | inhibition ratio (IR value) (human OCTN2; MDCK-OCTN2, 50 μM, inhibitor L-carnitine (200 μM)): 65.69% | Papp (Caco-2 cell model): 3.29 ± 0.739 × 10^−7 cm·s^−1
